Among the test systems are 786-0 renal; A498 renal; ACHN renal; CCRF-CEM leukemia; EKVX NSCLC; K-562 leukemia; M14 melanoma; NCI-H460 lung; SK-MEL-2 melanoma; UO-31 renal.
Assay in all cases: NCI tumour cell line growth inhibition, 48 h

“And” between values parts separate entries of the source, which are not always exact repeats. Equal entries are not always repeated.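 Briefly, cells in 96-well plates were exposed to five compound concentrations for 48 h, and endpoints were estimated by linear interpolation. Here, GI50 denotes the concentration required for 50% inhibition of growth. TGI marks complete inhibition of growth.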

In the case of `O=C(c1ccc(Cl)cc1)c1ccc(OCC(=O)N2CCN(c3ccccc3)CC2)cc1`, the TGI was greater than 100 µM with 786-0 renal; 78.9 µM in the test on A498 renal; greater than 100 µM in the test on ACHN renal; greater than 100 µM in the test with CCRF-CEM leukemia; greater than 100 µM in the test on EKVX NSCLC; greater than 100 µM in the test on K-562 leukemia. Moreover, the TGI with M14 melanoma, in the test on NCI-H460 lung, with SK-MEL-2 melanoma and in the test on UO-31 renal was greater than 100 µM throughout.

Turning to `COc1ccc2c3c1OC1CC(O)C=CC31CCN(C)C2` (stereo not given), the TGI with A498 renal, with CCRF-CEM leukemia, in the test on EKVX NSCLC, in the test with K-562 leukemia, with NCI-H460 lung and in the test with SK-MEL-2 melanoma was greater than 150 µM each time. In the test on UO-31 renal, this molecule showed a TGI greater than 150 µM.

Take `CCN(CC)Cc1nc2sc3c(c2c(=O)n1-c1ccccc1)CCCC3`: the TGI in the test on 786-0 renal was 32.2 µM; in the test on A498 renal it was 45.2 µM; in the test on ACHN renal it was 55.2 µM; with CCRF-CEM leukemia it was greater than 100 µM; in the test with EKVX NSCLC it was 79.9 µM; in the test with K-562 leukemia, greater than 100 µM. Besides, the TGI in the test with M14 melanoma turned out to be 30.2 µM; in the test with NCI-H460 lung, 40.8 µM; in the test on SK-MEL-2 melanoma it was 38.6 µM; with UO-31 renal it was 23.3 µM.

In the case of `c1ccc2c(-c3cnc(-c4c[nH]c5ccccc45)cn3)c[nH]c2c1`, the TGI with 786-0 renal, in the test with A498 renal, in the test with ACHN renal, in the test with EKVX NSCLC, with K-562 leukemia and with M14 melanoma was greater than 100 µM each time. Moreover, the TGI in the test on NCI-H460 lung, in the test with SK-MEL-2 melanoma and with UO-31 renal was greater than 100 µM throughout.

As for `CC(=O)Oc1ccc(/C=C/C(=O)O[C@@H](C)[C@H](C)OC(=O)/C=C/c2ccc(OC(C)=O)c(OC(C)=O)c2)cc1OC(C)=O`, the TGI was greater than 100 µM in the test on 786-0 renal; 93.9 µM with A498 renal; greater than 100 µM in the test on ACHN renal; 42.3 µM in the test on CCRF-CEM leukemia; 79.7 µM in the test with EKVX NSCLC; greater than 100 µM in the test on K-562 leukemia. Besides, the TGI in the test with M14 melanoma is 58.4 µM; in the test on NCI-H460 lung it was greater than 100 µM; with SK-MEL-2 melanoma, greater than 100 µM; in the test with UO-31 renal, greater than 100 µM.

For the molecule `Cc1cnoc1NC1=CC(=O)C(=O)c2ccccc21`, the TGI in the test with 786-0 renal is greater than 100 µM; with A498 renal, greater than 100 µM; with ACHN renal it was greater than 100 µM; in the test on CCRF-CEM leukemia, 44.6 µM; with EKVX NSCLC it was greater than 100 µM; in the test with K-562 leukemia, 10.9 µM. Further, the TGI is greater than 100 µM in the test on M14 melanoma, greater than 100 µM with NCI-H460 lung, 10.5 µM in the test with SK-MEL-2 melanoma and 74.6 µM in the test with UO-31 renal.

As to `COc1ccc2[nH]c3c(c2c1)CCN(C)CC3`, the TGI with 786-0 renal, with A498 renal, in the test with ACHN renal, with CCRF-CEM leukemia, with EKVX NSCLC and with K-562 leukemia was greater than 100 µM each time. Moreover, the TGI in the test with M14 melanoma, in the test with NCI-H460 lung and in the test on SK-MEL-2 melanoma was greater than 100 µM throughout.

On to `CC(C)(C)OC(=O)n1cc(C2CNC(=O)C23CCC(=O)N3Cc2ccccc2)c2ccccc21` (stereo not given), for which the TGI was 44.8 µM in the test on 786-0 renal; 35.3 µM with A498 renal; 55.7 µM with CCRF-CEM leukemia; 54.6 µM in the test on EKVX NSCLC; greater than 100 µM in the test with K-562 leukemia; 67.4 µM in the test on M14 melanoma. In addition, the TGI in the test on NCI-H460 lung turned out to be 47.6 µM; in the test on SK-MEL-2 melanoma, 33.4 µM; in the test with UO-31 renal, 49 µM.

For the molecule `CCCC/C=C1\CCC(CN2CCCCC2)C1=O` (stereo not given), the TGI is 31.6 µM with A498 renal; 44.3 µM in the test with ACHN renal; 16.2 µM in the test with CCRF-CEM leukemia; 31.9 µM in the test with EKVX NSCLC; 22.8 µM in the test with K-562 leukemia; 24.4 µM with M14 melanoma. Besides, the TGI in the test with NCI-H460 lung was 55.5 µM; in the test on SK-MEL-2 melanoma, greater than 54.4 µM; in the test with UO-31 renal, 47.7 µM.

For `N/N=C(\C(=O)Nc1c(Cl)cc([N+](=O)[O-])cc1Cl)C(c1cnc2ccc([N+](=O)[O-])cc2n1)[N+](=O)[O-]` (stereo not given), the TGI with A498 renal, in the test with ACHN renal, in the test on CCRF-CEM leukemia, in the test with EKVX NSCLC, in the test on K-562 leukemia and in the test on NCI-H460 lung was greater than 100 µM throughout. Besides, the TGI with SK-MEL-2 melanoma and with UO-31 renal was greater than 100 µM each time.

Consider `O=C(NCCN(CCNC(=O)c1cccc(=O)n1O)CCN(CCNC(=O)c1cccc(=O)n1O)CCNC(=O)c1cccc(=O)n1O)c1cccc(=O)n1O`, for which the TGI in the test on 786-0 renal, in the test on A498 renal, in the test on ACHN renal, with CCRF-CEM leukemia, in the test on K-562 leukemia and with M14 melanoma was greater than 100 µM throughout. Besides, the TGI in the test with NCI-H460 lung, in the test on SK-MEL-2 melanoma and in the test with UO-31 renal was greater than 100 µM in each case.

Regarding `CC1(C)OC2OC(COC(=O)C=[N+]=[N-])C3OC(C)(C)OC3C2O1` (stereo not given), the TGI in the test with 786-0 renal, in the test with A498 renal, with ACHN renal, in the test with CCRF-CEM leukemia, in the test with EKVX NSCLC and in the test with K-562 leukemia was greater than 100 µM in each case. The TGI in the test with NCI-H460 lung, in the test on SK-MEL-2 melanoma and in the test on UO-31 renal was greater than 100 µM each time.

Regarding `O=C1C(Br)=CC2([N+](=O)[O-])CCNc3c(O)c4c5c(c3C2=C1Br)=NCCC=5C=N4` (stereo not given), the TGI is 14.5 µM in the test with A498 renal; 1.41 µM in the test on CCRF-CEM leukemia; 7.43 µM in the test with EKVX NSCLC; 2.33 µM with K-562 leukemia; 12.1 µM with NCI-H460 lung; 3.15 µM in the test with SK-MEL-2 melanoma. Further, the TGI with UO-31 renal came out at 22.9 µM.

Regarding `CC(C)C[C@H](NC(=O)[C@H](Cc1cccc2ccccc12)NC(=O)N1CCOCC1)B(O)O`, the TGI in the test with 786-0 renal is 0.199 µM and 1.09 µM; in the test with A498 renal, 0.0288 µM and < 0.0143 µM; in the test with ACHN renal, greater than 100 µM; with EKVX NSCLC, 0.159 µM; in the test with M14 melanoma, 0.00154 µM and < 0.0125 µM; with NCI-H460 lung, 0.0542 µM and 0.0423 µM. Further, the TGI with SK-MEL-2 melanoma is 0.00251 µM and < 0.0159 µM; in the test with UO-31 renal, 0.159 µM and 0.211 µM. Also, the GI50 in the test on A498 renal was 0.000871 µM; with EKVX NSCLC, 0.00928 µM; with K-562 leukemia it was 0.00347 µM; with M14 melanoma it was 0.000443 µM; with NCI-H460 lung it was 0.0151 µM; in the test on SK-MEL-2 melanoma, 0.00068 µM.
